Laboratory results taken from patent US7402606B2, “Derivatives of 1-(oxoaminoacetyl) pentylcarbamate as cathepsin K inhibitors for the treatment of bone loss” (SmithKline Beecham Corporation, priority 2002, dated 2008).

What follows are compounds tested against T1, human cathepsin K (Homo sapiens, UniProt P43235) (assay: Cathepsin K inhibition assay, human recombinant enzyme, fluorogenic substrate Cbz-Phe-Arg-AMC). Details: Table 1, human cathepsin K; read-out: h Cat K IC50.
T1 construct: The proform of cathepsin K was converted to mature cathepsin K by brief exposure to pH 4; made in house; host or cells: baculovirus; Trichoplusia ni High Five cells (virus raised in Sf-9)
T1 sequence (P43235 115-329): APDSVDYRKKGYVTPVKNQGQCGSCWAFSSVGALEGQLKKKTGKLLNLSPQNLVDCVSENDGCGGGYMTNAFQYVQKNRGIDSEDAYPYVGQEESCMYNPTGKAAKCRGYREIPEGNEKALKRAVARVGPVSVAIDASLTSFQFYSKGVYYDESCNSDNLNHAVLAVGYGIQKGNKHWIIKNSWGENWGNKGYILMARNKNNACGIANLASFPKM
Format: biochemical
How it was run: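 Recombinant human cathepsin K (baculovirus/insect-cell proform, activated at pH 4 with 5 mM L-cysteine) assayed with 10 μM Cbz-Phe-Arg-AMC, 10% DMSO, 30 °C.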

Row | SMILES | IC50 [µM]
1 | CCCC[C@H](NC(=O)O[C@@H]1CN(C(=O)OCc2noc(-c3cccs3)n2)CC1(C)C)C(=O)C(=O)N[C@H](C)c1ccccc1 [Example 55, [5-(2-Thienyl)-1,2,4-oxadiazol-3-yl]methyl (4S)-3,3-dimethyl-4-[({[(1S)-1-(oxo{[(1R)-1-phenylethyl]amino}acetyl)pentyl]amino}carbonyl)oxy]-1-pyrrolidinecarboxylate] | 0.01 to 0.1
2 | CCCC[C@H](NC(=O)O[C@@H]1CN(C(=O)O[C@@H]2CCOC2)CC1(C)C)C(=O)C(=O)N[C@H](C)c1ccccc1 [Example 56, (3R)-Tetrahydro-3-furanyl (4S)-3,3-dimethyl-4-[({[(1S)-1-(oxo{[(1R)-1-phenylethyl]amino}acetyl)pentyl]amino}carbonyl)oxy]-1-pyrrolidinecarboxylate] | 0.01 to 0.1
3 | CCCC[C@H](NC(=O)O[C@@H]1CN(C(=O)Oc2ccc(-c3ccccc3)cc2)CC1(C)C)C(=O)C(=O)N[C@H](C)c1ccccc1 [Example 57, [1,1′-Biphenyl]-4-yl (4S)-3,3-dimethyl-4-[({[(1S)-1-(oxo{[(1R)-1-phenylethyl]amino}acetyl)pentyl]amino}carbonyl)oxy]-1-pyrrolidinecarboxylate] | 0.001 to 0.01
4 | CCCC[C@H](NC(=O)O[C@@H]1CN(C(=O)Oc2ccc(Oc3ccccc3)cc2)CC1(C)C)C(=O)C(=O)N[C@H](C)c1ccccc1 [Example 58, 4-Phenoxyphenyl (4S)-3,3-dimethyl-4-[({[(1S)-1-(oxo{[(1R)-1-phenylethyl]amino}acetyl)pentyl]amino}carbonyl)oxy]-1-pyrrolidinecarboxylate] | 0.01 to 0.1
5 | CCCC[C@H](NC(=O)O[C@@H]1CN(C(=O)Oc2cccc(Oc3ccccc3)c2)CC1(C)C)C(=O)C(=O)N[C@H](C)c1ccccc1 [Example 59, 3-Phenoxyphenyl (4S)-3,3-dimethyl-4-[({[(1S)-1-(oxo{[(1R)-1-phenylethyl]amino}acetyl)pentyl]amino}carbonyl)oxy]-1-pyrrolidinecarboxylate] | 0.01 to 0.1
6 | CCCC[C@H](NC(=O)O[C@@H]1CN(C(=O)Oc2ccc3ccccc3c2)CC1(C)C)C(=O)C(=O)N[C@H](C)c1ccccc1 [Example 60, 2-Naphthyl (4S)-3,3-dimethyl-4-[({[(1S)-1-(oxo {[(1R)-1-phenylethyl]amino}acetyl)pentyl]amino}carbonyl)oxy]-1-pyrrolidinecarboxylate] | 0.01 to 0.1
7 | CCCC[C@H](NC(=O)O[C@@H]1CN(C(=O)Oc2ccc(-c3csnn3)cc2)CC1(C)C)C(=O)C(=O)N[C@H](C)c1ccccc1 [Example 61, 4-(1,2,3-Thiadiazol-4-yl)phenyl (4S)-3,3-dimethyl-4-[({[(1S)-1-(oxo{[(1R)-1-phenylethyl]amino}acetyl)pentyl]amino}carbonyl)oxy]-1-pyrrolidinecarboxylate] | 0.01 to 0.1
8 | CCCC[C@H](NC(=O)OC1CN(C(=O)Oc2ccccc2)CC1(C)C)C(=O)C(=O)N[C@H](C)c1ccccc1 (stereo partly drawn) [Example 62, Phenyl 3,3-dimethyl-4-[({[(1S)-1-(oxo{[(1R)-1-phenylethyl]amino}acetyl)pentyl]amino}carbonyl)oxy]-1-pyrrolidinecarboxylate] | 0.01 to 0.1
9 | CCCC[C@H](NC(=O)O[C@@H]1CN(C(=O)Nc2ccccc2)CC1(C)C)C(=O)C(=O)N[C@H](C)c1ccccc1 [Example 63, (3S)-1-(Anilinocarbonyl)-4,4-dimethylpyrrolidinyl (1S)-1-(oxo{[(1R)-1-phenylethyl]amino}acetyl)pentylcarbamate] | 0.001 to 0.01
10 | CCCC[C@H](NC(=O)O[C@@H]1CN(C(=O)NCc2ccccc2)CC1(C)C)C(=O)C(=O)N[C@H](C)c1ccccc1 [Example 64] | 0.001 to 0.01
11 | CCCC[C@H](NC(=O)O[C@@H]1CN(C(=O)NCCc2ccccc2)CC1(C)C)C(=O)C(=O)N[C@H](C)c1ccccc1 [Example 65, (3S)-4,4-Dimethyl-1-{[(2-phenylethyl)amino]carbonyl}pyrrolidinyl (1S)-1-(oxo{[(1R)-1-phenylethyl]amino}acetyl)pentylcarbamate] | 0.001 to 0.01
12 | CCCC[C@H](NC(=O)O[C@@H]1CN(C(=O)c2cccnc2)CC1(C)C)C(=O)C(=O)N[C@H](C)c1ccccc1 [Example 66, (3S)-4,4-Dimethyl-1-(3-pyridinylcarbonyl)pyrrolidinyl (1S)-1-(oxo{[(1R)-1-phenylethyl]amino}acetyl)pentylcarbamate] | 0.01 to 0.1
13 | CCCC[C@H](NC(=O)O[C@@H]1CN(C(=O)Nc2c(C)noc2C)CC1(C)C)C(=O)C(=O)N[C@H](C)c1ccccc1 [Example 67, (3S)-1-{[(3,5-Dimethyl-4-isoxazolyl)amino]carbonyl}-4,4-dimethylpyrrolidinyl (1S)-1-(oxo{[(1R)-1-phenylethyl]amino}acetyl)pentylcarbamate] | 0.01 to 0.1
14 | CCCC[C@H](NC(=O)O[C@@H]1CN(C(=O)NC2CCCCC2)CC1(C)C)C(=O)C(=O)N[C@H](C)c1ccccc1 [Example 68, (3S)-1-[(Cyclohexylamino)carbonyl]-4,4-dimethylpyrrolidinyl (1S)-1-(oxo{[(1R)-1-phenylethyl]amino}acetyl)pentylcarbamate] | 0.01 to 0.1
15 | CCCC[C@H](NC(=O)O[C@@H]1CN(C(=O)Nc2ccc(C#N)cc2)CC1(C)C)C(=O)C(=O)N[C@H](C)c1ccccc1 [Example 69, (3S)-1-[(4-Cyanoanilino)carbonyl]-4,4-dimethylpyrrolidinyl (1S)-1-(oxo{[(1R)-1-phenylethyl]amino}acetyl)pentylcarbamate] | 0.01 to 0.1
16 | CCCC[C@H](NC(=O)O[C@@H]1CN(C(=O)Nc2ccc(C(F)(F)F)cc2)CC1(C)C)C(=O)C(=O)N[C@H](C)c1ccccc1 [Example 70, (3S)-4,4-Dimethyl-1-{[4-(trifluoromethyl)anilino]carbonyl}pyrrolidinyl (1S)-1-(oxo {[(1R)-1-phenylethyl]amino}acetyl)pentylcarbamate] | 0.001 to 0.01
17 | CCCC[C@H](NC(=O)O[C@@H]1CN(C(=O)Nc2cc(F)ccc2C)CC1(C)C)C(=O)C(=O)N[C@H](C)c1ccccc1 [Example 72, (3S)-1-[(5-Fluoro-2-methylanilino)carbonyl]-4,4-dimethylpyrrolidinyl (1S)-1-(oxo{[(1R)-1-phenylethyl]amino}acetyl)pentylcarbamate] | 0.001 to 0.01
18 | CCCC[C@H](NC(=O)O[C@@H]1CN(C(=O)N2CCOCC2)CC1(C)C)C(=O)C(=O)N[C@H](C)c1ccccc1 [Example 73, (3S)-4,4-Dimethyl-1-(4-morpholinylcarbonyl)pyrrolidinyl (1S)-1-(oxo{[(1R)-1-phenylethyl]amino}acetyl)pentylcarbamate] | 0.01 to 0.1
19 | CCCC[C@H](NC(=O)O[C@@H]1CN(C(=O)N2CCCC2)CC1(C)C)C(=O)C(=O)N[C@H](C)c1ccccc1 [Example 74, (3S)-4,4-Dimethyl-1-(1-pyrrolidinylcarbonyl)pyrrolidinyl (1S)-1-(oxo{[(1R)-1-phenylethyl]amino}acetyl)pentylcarbamate] | 0.01 to 0.1
20 | CCCC[C@H](NC(=O)O[C@@H]1CN(C(=O)NC(=O)c2ccccc2)CC1(C)C)C(=O)C(=O)N[C@H](C)c1ccccc1 [Example 75, (3S)-1-[(Benzoylamino)carbonyl]-4,4-dimethylpyrrolidinyl (1S)-1-(oxo{[(1R)-1-phenylethyl]amino}acetyl)pentylcarbamate] | 0.01 to 0.1
21 | CCCC[C@H](NC(=O)O[C@@H]1CN(C(=O)NS(=O)(=O)c2ccc(C)cc2)CC1(C)C)C(=O)C(=O)N[C@H](C)c1ccccc1 [Example 76, (3S)-4,4-Dimethyl-1-({[(4-methylphenyl)sulfonyl]amino}carbonyl)pyrrolidinyl (1S)-1-(oxo{[(1R)-1-phenylethyl]amino}acetyl)pentylcarbamate] | 0.1 to 1
22 | CCCC[C@H](NC(=O)O[C@@H]1CN(S(=O)(=O)c2ccccc2)CC1(C)C)C(=O)C(=O)N[C@H](C)c1ccccc1 [Example 77, (3S)-4,4-Dimethyl-1-(phenylsulfonyl)pyrrolidinyl (1S)-1-(oxo{[(1R)-1-phenylethyl]amino}acetyl)pentylcarbamate] | 0.001 to 0.01
23 | CCCC[C@H](NC(=O)O[C@@H]1CN(S(=O)(=O)Cc2ccccc2)CC1(C)C)C(=O)C(=O)N[C@H](C)c1ccccc1 [Example 78, (3S)-1-(Benzylsulfonyl)-4,4-dimethylpyrrolidinyl (1S)-1-(oxo{[(1R)-1-phenylethyl]amino}acetyl)pentylcarbamate] | 0.01 to 0.1
24 | CCCC[C@H](NC(=O)O[C@@H]1CN(S(=O)(=O)c2ccc3c(c2)OCO3)CC1(C)C)C(=O)C(=O)N[C@H](C)c1ccccc1 [Example 79, (3S)-1-(1,3-Benzodioxol-5-ylsulfonyl)-4,4-dimethylpyrrolidinyl (1S)-1-(oxo{[(1R)-1-phenylethyl]amino}acetyl)pentylcarbamate] | 0.01 to 0.1
25 | CCCC[C@H](NC(=O)O[C@@H]1CN(S(=O)(=O)c2ccc3c(c2)OCCO3)CC1(C)C)C(=O)C(=O)N[C@H](C)c1ccccc1 [Example 80, (3S)-1-(2,3-Dihydro-1,4-benzodioxin-6-ylsulfonyl)-4,4-dimethylpyrrolidinyl (1S)-1-(oxo{[(1R)-1-phenylethyl]amino}acetyl)pentylcarbamate] | 0.01 to 0.1
26 | CCCC[C@H](NC(=O)O[C@@H]1CN(c2nc3ccccc3s2)CC1(C)C)C(=O)C(=O)Nc1ccn[nH]1 [Example 81, (3S)-1-(1,3-Benzothiazol-2-yl)-4,4-dimethylpyrrolidinyl (1S)-1-[oxo(1H-pyrazol-5-ylamino)acetyl]pentylcarbamate] | 0.0001 to 0.001
27 | CCCCC(NC(=O)O[C@@H]1COCC1(C)C)C(=O)C(=O)N[C@H](C)c1ccccc1 (stereo partly drawn) [Example 83, (3S)-4,4-Dimethyltetrahydro-3-furanyl 1-(oxo{[(1R)-1-phenylethyl]amino}acetyl)pentylcarbamate] | 0.01 to 0.1
